Measured values: US9610232B2, “Use of sphinganine to improve the visual appearance of skin and hair” (EVONIK DEGUSSA GMBH, priority 2011, dated 2017)

What was measured:
[1] = test system: stem cell markers; test: Gene expression studies in cell cultures; format: cell-based
Description: A further subject matter of the present invention is consequently the cosmetic use of sphinganine for modulating stem cell markers.

[2] = test system: hair grease production; test: Human scalp health study: hair tonic applied to scalp, greasiness by subjective evaluation and Sebutape method; format: in vivo; conditions: hair tonic with 0.2% sphinganine, 3 mL to scalp twice daily, 4 months; vehicle control; 16 subjects per group
Description: The panel comprised 32 subjects (mixed male/female, minimum age 30, with a tendency for greasy scalp/greasy hair), with 16 subjects in each case applying a hair tonic with 0.2% sphinganine or without sphinganine (vehicle control). The application phase comprised 4 months, with the hair tonic being applied to the scalp twice daily (morning and evening) with the help of a pipette with a defined volume of 3 mL, and gently massaged in using the hands. The test parameters included the shine of the hair and the greasiness of the scalp. The greasiness of the scalp is carried out firstly by means of a subjective evaluation (self and expert estimation), and secondly by means of a “Sebutape” method in accordance with manufacturers instructions. Time points for carrying out the measurements were before the start of application, after two months and after four months.

[3] = test system: sebum production of the skin; test: Human sebum study: skin sebum on the forehead measured with Sebumeter SM 815; format: in vivo; conditions: lotion with 0.1% sphinganine, topical to forehead twice daily, 28 days (T4 vs T0); compared to the starting value and to the vehicle group; 14 female subjects
Description: The panel comprised 30 female subjects aged 21-45 years, with 14 subjects applying a lotion containing 0.1% sphinganine and 16 subjects applying a lotion without sphinganine (vehicle control).
The application phase comprised 28 days, with application taking place twice daily (morning and evening) to the forehead.
The skin sebum was measured using a Sebumeter SM 815® from Courage+Khazaka electronic GmbH, Cologne, Germany. The measurements were taken in the middle of the forehead in the region of the glabella lines. The average value calculated from the individual values of three repeat measurements was registered. On the evening before each measurement no formulation was applied. Three hours before the measurement, the forehead was cleaned using a wipe (babylove sensitive wipes, dm-drogerie markt, Karlsruhe, Germany). The measurements were carried out in each case at a time of day defined individually for each subject in the period between 12:00 and 14:30 hours. The sebum value at time point T0 before the application phase and T4 after 28 days was determined.

CCCCCCCCCCCCCCC[C@@H](O)[C@@H](N)CO [sphinganine]
expression of stem cell markers [1]: beneficially modulated the expression of so-called stem cell markers | hair grease production [2]: significant reduction in hair grease production | sebum production [3]: statistically significant reduction in sebum production
